# Assay results as given in patent publication US20230192661A1, “1, 4, 5, 6-TETRAHYDROPYRIMIDINE-2-AMINE DERIVATIVE” (UBE Corporation, priority 2020, published 2023).
# Experiments:
# [1] = system: TGF-β activation (phosphorylated SMAD3); experiment: TGF-β activation inhibition test (inhibition of SMAD3 phosphorylation in TFK-1 cells); format: cell-based; conditions: 48 h, fibronectin-coated plate, cultured 2 days, read-out: IC50 (rate of inhibition of phosphorylated SMAD3)
# Method: In Test Example 3, the inhibition of TGF-β activation by a compound was detected with the inhibition of SMAD3 phosphorylation as an index. In Test Example 3, the same reagents as in Test Example 1 were used unless otherwise specified.
# Human fibronectin was prepared at 14 μg/mL with PBS and then dispensed at 50 μL/well to a 96-well plate. The plate was left standing at room temperature for 1 hour or longer, followed by the removal of the fibronectin solution. The plate was washed with PBS and used as a coated plate.
# A test compound dissolved in DMSO was added to RPMI medium 1640 (manufactured by Thermo Fisher Scientific, Inc., 11875) containing 1% FBS and 1% penicillin/streptomycin/amphotericin B to prepare a medium containing the test compound having a concentration of two times the final concentration. This medium was added at 100 μL/well to the coated plate. TFK-1 cells (Cell Resource Center for Biomedical Research, Institute of Development, Aging and Cancer, Tohoku University) cultured in RPMI medium 1640 containing 10% FBS and 1% penicillin/streptomycin/amphotericin B were suspended in RPMI medium 1640 containing 1% FBS and 1% penicillin/streptomycin/amphotericin B to prepare a cell suspension of 1×10^6 cells/mL. The prepared cell suspension was further added at 100 μL/well and cultured for 2 days in a 5% CO2 incubator (37° C.).
# Phosphorylated SMAD3 in the cells thus cultured for 2 days was measured using Phospho-SMAD3 (Ser423/425) cellular kit (manufactured by cisbio, 63ADK025), and a DeltaF value was calculated according to the calculation expression of the kit. Inhibition when 10 μM LY364947 (FUJIFILM Wako Pure Chemical Corp., 123-05981) was added instead of the test compound was defined as 100% inhibition, and inhibition when DMSO was added instead was defined as 0% inhibition. The rate of inhibition of phosphorylated SMAD3 by the test compound was calculated according to the following expression.
# Rate of inhibition of phosphorylated SMAD3 (%)=[1−{(DeltaF value in the case of adding the test compound)−(DeltaF value in the case of adding 10 μM LY364947)}/{(DeltaF value in the case of adding DMSO)−(DeltaF value in the case of adding 10 μM LY364947)}]×100
# An IC50 value was calculated from the rate of inhibition of phosphorylated SMAD3 by the test compound. A: IC50<10 nM, B: 10 nM≤IC50<50 nM, C: 50 nM≤IC50<100 nM, or D: IC50≥100 nM.
# [2] = system: Human hepatic stellate cells; experiment: Active human hepatic stellate cell dedifferentiation test (decrease in ACTA2 mRNA expression); format: cell-based; conditions: 3 days differentiation then 2 days with compound, read-out: IC50 (rate of decrease in ACTA2 mRNA expression)
# Method: Human hepatic stellate cells (manufactured by ScienCell Research Laboratories, Inc., 5300) were suspended in DMEM containing 10% FBS and […] penicillin/streptomycin/amphotericin B to prepare a cell suspension of 0.5×10^5 cells/mL, which was regarded as cells at the start of differentiation. The cells at the start of differentiation were dispensed at 1 mL/well to a 12-well plate and cultured, for differentiation, for 3 days in a 5% CO2 incubator (37° C.).
# The culture solution in each well was removed, and DMEM containing 10% FBS and 1% penicillin/streptomycin/amphotericin B supplemented with a test compound dissolved in DMSO (final DMSO concentration: 0.1%) was added at 1 mL/well. The resultant was further cultured for 2 days in a 5% CO2 incubator (37° C.). In Test Example 4, the same reagents as in Test Example 1 were used unless otherwise specified.
# RNA in the cultured cells was extracted using NucleoSpin® RNA (manufactured by Takara Bio Inc., U0955C), and cDNA was further synthesized from the extracted RNA using Prime Script™ RT reagent Kit with gDNA Eraser (manufactured by Takara Bio Inc., RR047A). Real time PCR was performed using the synthesized cDNA, various primers and TB Green® Premix Ex Taq™ II (manufactured by Takara Bio Inc., RR820A) and using PCR Thermal Cycler Dice Real Time (manufactured by Takara Bio Inc., System Code TP910, Model Code TP900). The primers used were actin alpha 2, smooth muscle (ACTA2) primer (manufactured by Takara Bio Inc., HA136273) and glyceraldehyde-3-phosphate dehydrogenase (GAPDH) primer (manufactured by Takara Bio Inc., HA067812).
# The amplification curve of PCR was analyzed by the comparative Ct method. The expression level of ACTA2 mRNA was corrected with the expression level of GAPDH mRNA. An ACTA2 mRNA expression level when DMSO was added instead of the test compound was defined as 100%, and an ACTA2 mRNA expression level in the cells at the start of differentiation was defined as 0%. The rate of decrease in ACTA2 mRNA expression by the test compound was calculated according to the following expression.
# Rate of decrease in ACTA2 mRNA expression (%)=[1−{(ACTA2 mRNA expression level in the case of adding the test compound)−(ACTA2 mRNA expression level in the cells at the start of differentiation)}/{(ACTA2 mRNA expression level in the case of adding DMSO)−(ACTA2 mRNA expression level in the cells at the start of differentiation)}]×100
# An IC50 value was calculated from the rate of decrease in ACTA2 mRNA expression by the test compound. A: IC50<10 nM, B: 10 nM≤IC50<50 nM, C: 50 nM≤IC50<100 nM, or D: IC50≥100 nM.
SMILES,IC50 [1],IC50 [2]
"O=C(O)C[C@H](NC(=O)CNC(=O)c1cc(NC2=NCC(F)CN2)c2cn[nH]c2c1)c1cc(Cl)cc(C(F)(F)F)c1 (stereo partly drawn) [Example 1-(b), (3S)-3-(3-chloro-5-(trifluoromethyl)phenyl)-3-(2-(4-((5-fluoro-1,4,5,6-tetrahydropyrimidin-2-yl)amino)-1H-indazole-6-carboxamido)acetamido)propanoic acid]",< 10 nM,< 10 nM
"O=C(O)C[C@H](NC(=O)CNC(=O)c1cc(NC2=NCC(F)CN2)c2cn[nH]c2c1)c1cc(Br)cc(C(F)(F)F)c1 (stereo partly drawn) [Example 2-(b), (3S)-3-(3-bromo-5-(trifluoromethyl)phenyl)-3-(2-(4-((5-fluoro-1,4,5,6-tetrahydropyrimidin-2-yl)amino)-1H-indazole-6-carboxamido)acetamido)propanoic acid]",< 10 nM,10 to 50 nM
"O=C(O)C[C@H](NC(=O)CNC(=O)c1cc(NC2=NCC(F)CN2)c2cn[nH]c2c1)c1cc(I)cc(C(F)(F)F)c1 (stereo partly drawn) [Example 3-(b), (3S)-3-(2-(4-((5-fluoro-1,4,5,6-tetrahydropyrimidin-2-yl)amino)-1H-indazole-6-carboxamido)acetamido)-3-(3-iodo-5-(trifluoromethyl)phenyl)propanoic acid]",< 10 nM,10 to 50 nM
"Cc1cc([C@H](CC(=O)O)NC(=O)CNC(=O)c2cc(NC3=NCC(F)CN3)c3cn[nH]c3c2)cc(C(F)(F)F)c1 (stereo partly drawn) [Example 4-(b), (3S)-3-(2-(4-((5-fluoro-1,4,5,6-tetrahydropyrimidin-2-yl)amino)-1H-indazole-6-carboxamido)acetamido)-3-(3-methyl-5-(trifluoromethyl)phenyl)propanoic acid]",< 10 nM,10 to 50 nM
"COc1cc([C@H](CC(=O)O)NC(=O)CNC(=O)c2cc(NC3=NCC(F)CN3)c3cn[nH]c3c2)cc(C(F)(F)F)c1 (stereo partly drawn) [Example 5-(b), (3S)-3-(2-(4-((5-fluoro-1,4,5,6-tetrahydropyrimidin-2-yl)amino)-1H-indazole-6-carboxamido)acetamido)-3-(3-methoxy-5-(trifluoromethyl)phenyl)propanoic acid]",10 to 50 nM,< 10 nM
"O=C(O)C[C@H](NC(=O)CNC(=O)c1cc(NC2=NCC(F)CN2)c2cn[nH]c2c1)c1cc(F)cc(C(F)(F)F)c1 (stereo partly drawn) [Example 6-(b), (3S)-3-(2-(4-((5-fluoro-1,4,5,6-tetrahydropyrimidin-2-yl)amino)-1H-indazole-6-carboxamido)acetamido)-3-(3-fluoro-5-(trifluoromethyl)phenyl)propanoic acid]",10 to 50 nM,10 to 50 nM
"O=C(O)C[C@H](NC(=O)CNC(=O)c1cc(NC2=NCC(F)CN2)c2cn[nH]c2c1)c1cc(Cl)ccc1F (stereo partly drawn) [Example 22-(b), (3S)-3-(5-chloro-2-fluorophenyl)-3-(2-(4-((5-fluoro-1,4,5,6-tetrahydropyrimidin-2-yl)amino)-1H-indazole-6-carboxamido)acetamido)propanoic acid]",10 to 50 nM,–
"O=C(O)C[C@H](NC(=O)CNC(=O)c1cc(NC2=NCC(F)CN2)c2cn[nH]c2c1)c1cc(Br)ccc1F (stereo partly drawn) [Example 23-(b), (3S)-3-(5-bromo-2-fluorophenyl)-3-(2-(4-((5-fluoro-1,4,5,6-tetrahydropyrimidin-2-yl)amino)-1H-indazole-6-carboxamido)acetamido)propanoic acid]",10 to 50 nM,–
"O=C(O)C[C@H](NC(=O)CNC(=O)c1cc(NC2=NCC(F)CN2)c2cn[nH]c2c1)c1ccc(F)c(OC(F)F)c1 (stereo partly drawn) [Example 27-(b), (3S)-3-(3-(difluoromethoxy)-4-fluorophenyl)-3-(2-(4-((5-fluoro-1,4,5,6-tetrahydropyrimidin-2-yl)amino)-1H-indazole-6-carboxamido)acetamido)propanoic acid]",< 10 nM,–
"O=C(O)C[C@H](NC(=O)CNC(=O)c1cc(NC2=NCC(F)CN2)c2cn[nH]c2c1)c1cc(OC(F)F)cc(-n2cccn2)c1 (stereo partly drawn) [Example 29-(b), (3S)-3-(3-(difluoromethoxy)-5-(1H-pyrazol-1-yl)phenyl)-3-(2-(4-((5-fluoro-1,4,5,6-tetrahydropyrimidin-2-yl)amino)-1H-indazole-6-carboxamido)acetamido)propanoic acid]",< 10 nM,–
"Cc1cc(C)n(-c2cccc([C@H](CC(=O)O)NC(=O)CNC(=O)c3cc(NC4=NCC(F)CN4)c4cn[nH]c4c3)c2)n1 (stereo partly drawn) [Example 44-(b), (3S)-3-(3-(3,5-dimethyl-1H-pyrazol-1-yl)phenyl)-3-(2-(4-((5-fluoro-1,4,5,6-tetrahydropyrimidin-2-yl)amino)-1H-indazole-6-carboxamido)acetamido)propanoic acid]",< 10 nM,–
"O=C(O)C[C@H](NC(=O)CNC(=O)c1cc(NC2=NCC(F)CN2)c2cn[nH]c2c1)c1cccc(N2CCOCC2)c1 (stereo partly drawn) [Example 45-(b), (3S)-3-(2-(4-((5-fluoro-1,4,5,6-tetrahydropyrimidin-2-yl)amino)-1H-indazole-6-carboxamido)acetamido)-3-(3-morpholinophenyl)propanoic acid]",10 to 50 nM,–
"O=C(O)C[C@H](NC(=O)CNC(=O)c1cc(NC2=NCC(F)CN2)c2cn[nH]c2c1)c1ccc(OC(F)F)cc1 (stereo partly drawn) [Example 46-(b), (3S)-3-(4-(difluoromethoxy)phenyl)-3-(2-(4-((5-fluoro-1,4,5,6-tetrahydropyrimidin-2-yl)amino)-1H-indazole-6-carboxamido)acetamido)propanoic acid]",50 to 100 nM,–
"O=C(O)C[C@H](NC(=O)CNC(=O)c1cc(NC2=NCC(F)CN2)c2cn[nH]c2c1)c1ccc(C(F)(F)F)cc1 (stereo partly drawn) [Example 47-(b), (3S)-3-(2-(4-((5-fluoro-1,4,5,6-tetrahydropyrimidin-2-yl)amino)-1H-indazole-6-carboxamido)acetamido)-3-(4-(trifluoromethyl)phenyl)propanoic acid]",10 to 50 nM,–
"O=C(O)C[C@H](NC(=O)CNC(=O)c1cc(NC2=NCC(O)CN2)c2cn[nH]c2c1)c1cc(Cl)cc(C(F)(F)F)c1 (stereo partly drawn) [Example 50-(b), (3S)-3-(3-chloro-5-(trifluoromethyl)phenyl)-3-(2-(4-((5-hydroxy-1,4,5,6-tetrahydropyrimidin-2-yl)amino)-1H-indazole-6-carboxamido)acetamido)propanoic acid]",≥ 100 nM,–
"O=C(O)C[C@H](NC(=O)CNC(=O)c1cc(NC2=NCCCN2)c2cn[nH]c2c1)c1cc(Cl)cc(C(F)(F)F)c1 [Example 51-(b), (S)-3-(3-chloro-5-(trifluoromethyl)phenyl)-3-(2-(4-((1,4,5,6-tetrahydropyrimidin-2-yl)amino)-1H-indazole-6-carboxamido)acetamido)propanoic acid]",50 to 100 nM,–
